Tested on: E.coli strain DH5αZ1 transformed with input pBT plasmid and amplifier plasmid pAMP-1
Test: Output EGFP fluorescence of genetic circuit amplifier as a function of input IPTG concentration
Format: cell-based
Settings: 3 hours growth, corrected for cell density and background fluorescence
Excerpt: A second bacterial plasmid, pBT (Stratagene, CA), was selected to produce the input. It releases monomer into the cellular environment, making CI available for the engineered circuit to use. It is a simple plasmid that controls transcription of cI with the PlacUV promoter. […] The pBT vector has an origin of replication derived from p15A, making it compatible with the circuit plasmid which has a different ColE1 origin of replication. Together, the plasmids constitute a cis-trans network, since the product of one plasmid (pBT) affects the outcome of gene expression on the second plasmid (pAMP-1).
The input pBT plasmid and the amplifier plasmid pAMP-1 gene were transformed into chemically competent E.coli strain DH5αZ1. This strain was selected because it produces LacI in abundance so as to permit effective use of pBT. Transformed cells were grown overnight at 37° C. in LB broth. Chloramphenicol was added at a concentration of 50 μg/mL and ampicillin was added at a concentration of 100 μg/mL.
The overnight culture was diluted 1:50 into fresh LB medium containing IPTG at the following concentrations: 0-20-200-2000 μM. These cells were allowed to grow for another 3 hours. The cells were then spun down and re-suspended in PBS. Fluorescence was then measured on a BMG Optima microplate fluorometer equipped with filters for GFP. Absorbance at 600 nm was also measured. Fluorescence was the corrected for cell density and background fluorescence. The result, presented in Table 1, indicates an output that decreases with increasing input. Observed non-linearity is likely due to low gain of chosen gain element.

CC(C)S[C@@H]1O[C@H](CO)[C@H](O)[C@H](O)[C@H]1O [IPTG, isopropyl-β-D-thiogalactopyranoside]
EGFP output fluorescence (IPTG 20 uM): 66263 arbitrary units | EGFP output fluorescence (IPTG 200 uM): 58338 arbitrary units | EGFP output fluorescence (IPTG 2000 uM): 44137 arbitrary units

Source: patent US20050112615A1, “Genetic circuit inverting amplifier” (priority 2003, published 2005)
